In the supplement of paper PMC4862054:

Tests used:
Assay in all cases: normalised response (% of control), CellTox Green; higher = less cell death (100 = DMSO, 0 = benzethonium chloride kill control)
Details in all cases: incubation time: 72 h
CAL-51 = test system: CAL-51
Summary of the method: (§1)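 Breast cancer cell lines (20 µl suspension) were seeded into 384-well plates holding compound at 5 concentrations in 10-fold steps over a compound-specific 10,000-fold range, then incubated 72 h. CellTox Green fluorescence (485/520 nm) was read first, then CellTiter-Glo luminescence after 10 min at room temperature. Each plate was normalised to 0.1 % DMSO (100) and a positive kill control (0). Each value is the normalised signal at a single concentration of the series.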

HCC1599 = test system: HCC1599
Summary of the method: as §1

BT-549 = test system: BT-549
Summary of the method: as §1

BT-474 = test system: BT-474
Summary of the method: as §1

MFM-223 = test system: MFM-223
Summary of the method: as §1

CAL-148 = test system: CAL-148
Summary of the method: as §1

DU-4475 = test system: DU-4475
Summary of the method: as §1

HDQ-P1 = test system: HDQ-P1
Summary of the method: as §1

CAL-85-1 = test system: CAL-85-1
Summary of the method: as §1

HCC1937 = test system: HCC1937
Summary of the method: as §1

MCF-10A = test system: MCF-10A
Summary of the method: as §1

CAL-120 = test system: CAL-120
Summary of the method: as §1

HCC1143 = test system: HCC1143
Summary of the method: as §1

MDA-MB-468 = test system: MDA-MB-468
Summary of the method: as §1

MDA-MB-231 = test system: MDA-MB-231
Summary of the method: as §1

MDA-MB-436 = test system: MDA-MB-436
Summary of the method: as §1

MDA-MB-453 = test system: MDA-MB-453
Summary of the method: as §1

Hs578T = test system: Hs578T
Summary of the method: as §1

| SMILES | normalised response (CAL-51) | normalised response (HCC1599) | normalised response (BT-549) | normalised response (BT-474) | normalised response (MFM-223) | normalised response (CAL-148) | normalised response (DU-4475) | normalised response (HDQ-P1) | normalised response (CAL-85-1) | normalised response (HCC1937) | normalised response (MCF-10A) | normalised response (CAL-120) | normalised response (HCC1143) | normalised response (MDA-MB-468) | normalised response (MDA-MB-231) | normalised response (MDA-MB-436) | normalised response (MDA-MB-453) | normalised response (Hs578T) |
| --- | --- | --- | --- | --- | --- | --- | --- | --- | --- | --- | --- | --- | --- | --- | --- | --- | --- | --- |
| CNCc1ccc(-c2[nH]c3cc(F)cc4c3c2CCNC4=O)cc1 [Rucaparib] (10000 nM) | 94.4% | 93.7% | 112% | 96.9% | 97.1% | 88.9% | 97.5% | 105% | 129% | 84.9% | 83.3% | 98.4% | 74.6% | 160% | 98.5% | 75.7% | 101% |  |
| CN(C)/N=N/c1[nH]cnc1C(N)=O [Dacarbazine] (10000 nM) | 111% | 104% | 94.1% | 95% | 96.7% |  | 98.9% | 111% | 81.7% |  | 103% | 105% | 116% | 104% | 101% | 91.3% | 101% | 126% |
| C=C(c1ccc(C(=O)O)cc1)c1cc2c(cc1C)C(C)(C)CCC2(C)C [Bexarotene] (1000 nM) | 110% | 107% | 98.8% | 99.1% | 103% | 75.7% | 99.3% | 95.3% | 95.7% | 94.8% | 85% | 99.6% | 83.9% | 111% | 114% | 98.4% | 84.4% |  |
| C#Cc1cccc(Nc2ncnc3cc(OCCOC)c(OCCOC)cc23)c1 [Erlotinib] (10000 nM) | 86% | 104% | 95.8% | 83.9% | 69.3% | 85.1% | 101% | 79.7% | 46% | 81.4% | 104% | 100% | 16.9% | 97.7% |  | 102% | 95.1% | 64.7% |
| C[C@]12CC[C@@H]3c4ccc(O)cc4C[C@@H](CCCCCCCCC[S+]([O-])CCCC(F)(F)C(F)(F)F)[C@H]3[C@@H]1CC[C@@H]2O (stereo partly drawn) [Fulvestrant] (1000 nM) | 117% | 98% | 91.9% | 102% | 97.8% | 100% | 99.7% | 111% | 74.9% | 98.5% | 101% | 97.9% | 113% |  | 115% | 93% | 97.9% | 121% |
| N[C@@H](CSC(c1ccccc1)(c1ccccc1)c1ccccc1)C(=O)O [S-trityl-L-cysteine] (4000 nM) | 105% | 95.5% | 104% | 101% |  | 98.3% | 101% | 62.2% | 100% | 85.1% | 116% | 97.9% | 87% | 136% |  | 105% | 101% | 106% |
| COc1cc2nccc(Oc3ccc(NC(=O)C4(C(=O)Nc5ccc(F)cc5)CC4)cc3)c2cc1OC [Cabozantinib] (100 nM) | 100% | 92.3% | 101% | 100% | 96.3% | 102% | 97.5% | 91.5% | 106% | 120% | 88.3% | 98.2% |  | 136% | 103% |  | 99.4% | 102% |
| N[C@@H](CSC(c1ccccc1)(c1ccccc1)c1ccccc1)C(=O)O [S-trityl-L-cysteine] (40000 nM) | 104% | 114% | 121% | 103% | 91% | 92.2% | 103% | 115% | 98.6% |  | 112% | 105% | 132% | 124% | 122% | 107% | 113% | 126% |
| Cc1ccc(-n2nc(C(C)(C)C)cc2NC(=O)Nc2ccc(OCCN3CCOCC3)c3ccccc23)cc1 [Doramapimod] (10000 nM) | 86.3% | 99% | 110% | 97.5% | 96.5% | 98.2% | 100% | 96.2% | 126% | 79.6% | 101% | 93.6% | 75.8% | 132% |  | 55.2% | 104% | 71.6% |
| C=C(c1ccc(C(=O)O)cc1)c1cc2c(cc1C)C(C)(C)CCC2(C)C [Bexarotene] (10000 nM) | 96.8% | 108% | 89.8% | 97.8% | 74.1% | 97.9% | 101% | 110% | 79.7% | 105% | 93.8% | 100% | 114% | 121% | 108% | 78.6% | 98.4% |  |
| O=P1(NCCCl)OCCCN1CCCl (stereo not drawn) [Ifosfamide] (10000 nM) | 93.9% | 93.6% | 77.5% | 70.9% | 95.7% | 95.8% | 94.9% | 101% | 133% |  |  | 100% | 99.9% | 193% | 89% | 82.4% | 104% | 54.2% |
| O=C1CCC(N2C(=O)c3ccccc3C2=O)C(=O)N1 (stereo not drawn) [Thalidomide] (1000 nM) | 111% | 98.2% |  | 97.5% | 100% | 97.4% | 98.5% | 111% | 108% | 99% |  | 101% | 99% | 130% | 63.5% | 109% | 103% | 97.6% |
| Cn1c(CCCC(=O)O)nc2cc(N(CCCl)CCCl)ccc21 [Bendamustine] (1000 nM) | 116% | 101% | 119% | 103% | 105% | 101% | 103% | 95.9% | 101% | 119% | 67.1% | 99.9% | 84.8% | 121% | 117% | 81.8% | 104% |  |
| Cc1ccc(C(=O)N(CCCN)[C@@H](c2oc3cc(Cl)ccc3c(=O)c2Cc2ccccc2)C(C)C)cc1 (100 nM) | 74.4% | 99.7% | 91.1% | 102% | 90.5% | 106% | 95.1% |  | 99.9% | 84.6% | 80% | 98.8% |  | 59.9% | 87.5% | 105% | 93.5% |  |
| COc1cc([C@@H]2c3cc4c(cc3[C@@H](O[C@@H]3O[C@@H]5CO[C@@H](C)O[C@H]5[C@H](O)[C@H]3O)[C@H]3COC(=O)[C@H]23)OCO4)cc(OC)c1O [Etoposide] (1000 nM) | 50.3% | 97% | 109% | 101% | 103% | 30.9% | 93.7% | 95.6% | 99.6% |  | 110% | 95.7% | 120% | 102% |  | 13.2% | 94.8% |  |
| C#Cc1cccc(Nc2ncnc3cc(OCCOC)c(OCCOC)cc23)c1 [Erlotinib] (1000 nM) | 78.1% | 103% | 96.5% | 98.3% | 86.7% | 69.6% | 103% | 100% | 70.4% | 121% | 69.5% | 103% | 112% |  | 101% | 101% | 108% | 99.5% |
| COc1cc2nccc(Oc3ccc(NC(=O)C4(C(=O)Nc5ccc(F)cc5)CC4)cc3)c2cc1OC [Cabozantinib] (1000 nM) | 82.7% | 94.5% | 105% | 98.4% | 93.8% | 96.9% | 96.9% | 65.3% | 104% | 102% |  | 98.6% | 108% | 158% | 97.1% | 87.1% | 101% | 70.1% |
| N.N.[Cl][Pt][Cl] [Cisplatin] (1000 nM) | 100% | 92% | 89.3% | 103% | 93.2% | 109% | 97.5% | 109% | 97.9% | 92.5% | 123% | 106% | 108% |  | 94.5% | 98.4% | 95.4% | 144% |
| CN(C)/N=N/c1[nH]cnc1C(N)=O [Dacarbazine] (1000 nM) | 105% | 101% | 114% | 102% |  | 101% | 101% | 88.7% | 103% | 116% | 111% | 100% | 86.7% |  | 116% | 77% | 103% |  |
| O=C1CCC(N2C(=O)c3ccccc3C2=O)C(=O)N1 (stereo not drawn) [Thalidomide] (10000 nM) | 100% | 99.9% | 99.3% | 103% | 101% | 60.5% | 99.1% |  | 119% | 97.8% | 99% | 104% | 105% | 186% | 115% |  | 93.2% | 63.3% |
| CC1(C)NC(=O)N(c2ccc([N+](=O)[O-])c(C(F)(F)F)c2)C1=O [Nilutamide] (10000 nM) | 102% | 102% | 107% | 98.8% | 96.2% | 101% | 104% | 98.1% | 83.5% | 92.1% | 79.5% | 101% |  | 115% | 105% | 102% | 97.3% | 102% |
| CNCc1ccc(-c2[nH]c3cc(F)cc4c3c2CCNC4=O)cc1 [Rucaparib] (1000 nM) | 93.3% | 96.6% | 115% | 95.8% | 84.5% | 100% | 95.3% | 71.8% | 71.2% | 76% | 84.3% | 97.2% | 104% |  | 100% | 60.3% | 103% | 110% |
| Cc1ccc(C(=O)Nc2ccc(CN3CCN(C)CC3)c(C(F)(F)F)c2)cc1C#Cc1cnc2cccnn12 [Ponatinib] (100 nM) | 99% | 97.4% | 92% | 97.9% | 98.7% | 104% | 99.3% | 95.6% | 105% | 92.2% | 72.1% | 99.1% | 107% | 96.7% | 97.6% | 102% | 105% |  |
| Cn1c(CCCC(=O)O)nc2cc(N(CCCl)CCCl)ccc21 [Bendamustine] (10000 nM) | 115% | 111% | 118% | 101% | 96.5% | 92.6% | 103% |  | 84.3% | 90.7% | 95.4% | 99.4% | 129% |  |  | 114% | 101% |  |
